Source: patent US20140336109A1, “MODULATION OF GHRELIN LEVELS AND GHRELIN/UNACYLATED GHRELIN RATIO USING UNACYLATED GHRELIN” (Alize Pharma SAS, priority 2011, published 2014)
Where no end group is shown, it is not given here.

How the values were obtained:
T2DM subjects = assay: Side effects and laboratory safety parameters during UAG infusion; assay type: in vivo, human; conditions: during infusions with UAG 3 and 10 μg/kg/hr, 15 hours
Experimental: A continuous overnight (15 hours) infusion of two doses of UAG (3 μg UAG/kg/hr and 10 μg UAG/kg/hr) versus placebo in a cross-over model on the AG concentrations was performed in eight overweight subjects with type 2 diabetes. FIG. 1 depicts a schematic representation of the study protocol. Glucose and insulin responses to a standard breakfast meal (SBM) in the subjects and reasonable metabolic control were assessed.
Study design—Single-center, investigator initiated, double blind and placebo controlled randomized study. During the first visit medical history, medication use and vital signs of subjects were checked. Blood samples were also taken for chemistry and hematology analysis. […]
Standard breakfast meal (SBM) consisted of: • 3 slices wheat bread; p1 3 portions of margarine; • 2 slices of cheese (48% fat); • 1 portion of jam; • 1 cup of whole milk; and • 1 boiled egg; for a total of 714 kcal (17% proteins; 46% fat; and 37% carbohydrates). […] At each of the 3 visits, the following safety parameters were assessed: hemoglobin, hematocrit, platelet count, WBC count, RBC count, and differential and were determined using Sysmex XE 2100, Firma Sysmex, Ecustraat 11, 4879 NP Etten-Leur. […] Serum glucose levels (using the in-house glucokinase assay) were also assessed every 30 minutes and starting before, and continuing for 4 hours after, the SBM. […]

[1] = U.S. Pat. Nos. 8,222,217 and 8,318,664; cited from earlier work
Sprague-Dawley rats = assay: AG-induced food intake in rats; assay type: in vivo; conditions: rat; i.p. 42 μg/kg + AG 13 μg/kg; 30 min, 1 h, 2 h
Experimental: With respect to the experimental data presented in FIG. 8, Sprague-Dawley rats of 7 weeks of age, weighing between 275 g and 300 g, were fed a pellet diet ad libitum and were singly housed in plastic cage. The experiment was performed at 2.5 h after the onset of the light cycle in freely fed rats. The rates were i.p. injected simultaneously with vehicle plus vehicle, vehicle+AG (13 μg/kg) or cyclised UAG (6-13) (SEQ ID NO: 25) (42 μg/kg)+AG (13 μg/kg). Immediately after the completion of the i.p. injection in rats, the night-ad-libitum food was removed and replaced by 2 pellets for each animal, previously weighed, placed into the top of the cage. Food intake was calculated as the difference between the food weight before and after the feeding period at each time interval (30 min, 1 h, and 2 h). Cumulative food intake was calculated by summating the values of the different time periods.

Compound | activity on glucose, insulin and lipid metabolisms relative to UAG full length [1] | also measured
CC(C)C[C@H](NC(=O)[C@H](CCCCN)NC(=O)[C@H](C)NC(=O)[C@@H]1CCCN1C(=O)[C@@H]1CCCN1C(=O)[C@H](CCCCN)NC(=O)[C@H](CCCCN)NC(=O)[C@H](CO)NC(=O)[C@H](CCC(=O)O)NC(=O)[C@H](CCCCN)NC(=O)[C@H](CCCNC(=N)N)NC(=O)[C@H](CCC(N)=O)NC(=O)[C@H](CCC(N)=O)NC(=O)[C@@H](NC(=O)[C@H](CCCNC(=N)N)NC(=O)[C@H](CCC(N)=O)NC(=O)[C@H](Cc1cnc[nH]1)NC(=O)[C@H](CCC(=O)O)NC(=O)[C@@H]1CCCN1C(=O)[C@H](CO)NC(=O)[C@H](CC(C)C)NC(=O)[C@H](Cc1ccccc1)NC(=O)[C@H](CO)NC(=O)[C@H](CO)NC(=O)CN)C(C)C)C(=O)N[C@@H](CCC(N)=O)C(=O)N1CCC[C@H]1C(=O)N[C@@H](CCCNC(=N)N)C(=O)O [UAG] |  | laboratory evaluations (chemistry or parameters) (T2DM subjects): no significant changes; side effects reported by subjects (T2DM subjects): did not report more side effects than placebo
EHQRVQ [UAG (8-13)] | retain the activity of UAG full length | 
Glu-His-Gln-Arg (EHQR; listed as Homo sapiens) [UAG (8-11)] | retain the activity of UAG full length | 
Glu-His-Gln-Arg-Val (EHQRV; listed as Homo sapiens) [UAG (8-12)] | retain the activity of UAG full length | 
His-Gln-Arg (HQR; listed as Homo sapiens) [UAG (9-11)] | retain the activity of UAG full length | 
His-Gln-Arg-Val (HQRV; listed as Homo sapiens) [UAG (9-12)] | retain the activity of UAG full length | 
SPEHQRVQ [UAG (6-13)] | retain the activity of UAG full length | 
Ser-Pro-Glu-His-Gln-Arg-Val-Gln (cycl) (SPEHQRVQ; also: cyclic, linkage type not given here; listed as Homo sapiens) [cyclic UAG (6-13)] |  | orexigenic effects (food intake) induced by AG (Sprague-Dawley rats): able to counteract the orexigenic effects induced by AG
